Results reported in patent US20210047304A1, “Bromodomain Inhibitors” (AbbVie Inc., priority 2016, published 2021).

What follows are compounds tested against BRD4 (BDI_K57-E168) (Homo sapiens, UniProt O60885) (assay: TR-FRET bromodomain binding assay, BRD4 BDI).

| SMILES | Ki [µM] |
| --- | --- |
| Cc1cc(F)cc(C)c1Oc1ccc(C(C)(C)O)cc1-c1cn(C)c(=O)cc1O[C@H]1CC[C@@H](C#N)CC1 [Example 68, cis-4-({5-[2-(4-fluoro-2,6-dimethylphenoxy)-5-(2-hydroxypropan-2-yl)phenyl]-1-methyl-2-oxo-1,2-dihydropyridin-4-yl}oxy)cyclohexane-1-carbonitrile] | 1.95 |
| COCC1(C(=O)N[C@H]2CC[C@H](Oc3cc(=O)n(C)cc3-c3cc(C(C)(C)O)ccc3Oc3c(C)cc(F)cc3C)CC2)CC1 [Example 70, N-[trans-4-({5-[2-(4-fluoro-2,6-dimethylphenoxy)-5-(2-hydroxypropan-2-yl)phenyl]-1-methyl-2-oxo-1,2-dihydropyridin-4-yl}oxy)cyclohexyl]-1-(methoxymethyl)cyclopropane-1-carboxamide] | 4.1 |
| COCC(C)(C)C(=O)N[C@H]1CC[C@H](Oc2cc(=O)n(C)cc2-c2cc(C(C)(C)O)ccc2Oc2c(C)cc(F)cc2C)CC1 [Example 71, N-[trans-4-({5-[2-(4-fluoro-2,6-dimethylphenoxy)-5-(2-hydroxypropan-2-yl)phenyl]-1-methyl-2-oxo-1,2-dihydropyridin-4-yl}oxy)cyclohexyl]-3-methoxy-2,2-dimethylpropanamide] | 5.08 |
| Cc1cc(F)cc(C)c1Oc1ccc(C(C)(C)O)cc1-c1cn(C)c(=O)cc1O[C@H]1CC[C@H](NC(=O)C2(C)COC2)CC1 [Example 73, N-[trans-4-({5-[2-(4-fluoro-2,6-dimethylphenoxy)-5-(2-hydroxypropan-2-yl)phenyl]-1-methyl-2-oxo-1,2-dihydropyridin-4-yl}oxy)cyclohexyl]-3-methyloxetane-3-carboxamide] | 2.26 |
| Cc1cc(F)cc(C)c1Oc1ccc(C(C)(C)O)cc1-c1cn(C)c(=O)cc1O[C@H]1CC[C@@H](C(=O)O)CC1 [Example 75, cis-4-({5-[2-(4-fluoro-2,6-dimethylphenoxy)-5-(2-hydroxypropan-2-yl)phenyl]-1-methyl-2-oxo-1,2-dihydropyridin-4-yl}oxy)cyclohexane-1-carboxylic acid] | > 13 |
| CCNC(=O)[C@H]1CC[C@@H](Oc2cc(=O)n(C)cc2-c2cc(C(C)(C)O)ccc2Oc2c(C)cc(F)cc2C)CC1 [Example 76, cis-N-ethyl-4-({5-[2-(4-fluoro-2,6-dimethylphenoxy)-5-(2-hydroxypropan-2-yl)phenyl]-1-methyl-2-oxo-1,2-dihydropyridin-4-yl}oxy)cyclohexane-1-carboxamide] | 7.69 |
| Cc1cc(F)cc(C)c1Oc1ccc(C(C)(C)O)cc1-c1cn(C)c(=O)cc1O[C@H]1CC[C@H](N2C(=O)[C@@H](C)N(C)C2=O)CC1 [Example 81, (5R)-3-[trans-4-({5-[2-(4-fluoro-2,6-dimethylphenoxy)-5-(2-hydroxypropan-2-yl)phenyl]-1-methyl-2-oxo-1,2-dihydropyridin-4-yl}oxy)cyclohexyl]-1,5-dimethylimidazolidine-2,4-dione] | 6.74 |
| Cc1cc(F)cc(C)c1Oc1ccc(C(C)(C)O)cc1-c1cn(C)c(=O)cc1O[C@H]1CC[C@H](N2C(=O)COC2=O)CC1 [Example 82, 3-[trans-4-({5-[2-(4-fluoro-2,6-dimethylphenoxy)-5-(2-hydroxypropan-2-yl)phenyl]-1-methyl-2-oxo-1,2-dihydropyridin-4-yl}oxy)cyclohexyl]-1,3-oxazolidine-2,4-dione] | 1.51 |
| CC(=O)NC1CCC(C)(Oc2cc(=O)n(C)cc2-c2cc(C(C)(C)O)ccc2Oc2c(C)cc(F)cc2C)CC1 (stereo not drawn) [Example 84, N-[trans-4-({5-[2-(4-fluoro-2,6-dimethylphenoxy)-5-(2-hydroxypropan-2-yl)phenyl]-1-methyl-2-oxo-1,2-dihydropyridin-4-yl}oxy)-4-methylcyclohexyl]acetamide] | > 13 |
| Cc1cc(F)cc(C)c1Oc1ccc(C(C)(C)O)cc1-c1cn(C)c(=O)cc1O[C@H]1CC[C@H](NC(=O)C2(C#N)CC2)CC1 [Example 85, 1-cyano-N-[trans-4-({5-[2-(4-fluoro-2,6-dimethylphenoxy)-5-(2-hydroxypropan-2-yl)phenyl]-1-methyl-2-oxo-1,2-dihydropyridin-4-yl}oxy)cyclohexyl]cyclopropane-1-carboxamide] | 2.27 |
| Cc1cc(F)cc(C)c1Oc1ccc(C(C)(C)O)cc1-c1cn(C)c(=O)cc1O[C@H]1CC[C@H](NC(=O)C2(C)CC(=O)C2)CC1 [Example 87, N-[trans-4-({5-[2-(4-fluoro-2,6-dimethylphenoxy)-5-(2-hydroxypropan-2-yl)phenyl]-1-methyl-2-oxo-1,2-dihydropyridin-4-yl}oxy)cyclohexyl]-1-methyl-3-oxocyclobutane-1-carboxamide] | 2.43 |
| Cc1cc(F)cc(C)c1Oc1ccc(C(C)(C)O)cc1-c1cn(C)c(=O)cc1O[C@H]1CC[C@H](NC(=O)C2(C#N)CCC2)CC1 [Example 88, 1-cyano-N-[trans-4-({5-[2-(4-fluoro-2,6-dimethylphenoxy)-5-(2-hydroxypropan-2-yl)phenyl]-1-methyl-2-oxo-1,2-dihydropyridin-4-yl}oxy)cyclohexyl]cyclobutane-1-carboxamide] | 3.98 |
| Cc1cc(F)cc(C)c1Oc1ccc(C(C)(C)O)cc1-c1cn(C)c(=O)cc1O[C@H]1CC[C@H](N2C(=O)O[C@@H](C)C2=O)CC1 [Example 92, (5S)-3-[trans-4-({5-[2-(4-fluoro-2,6-dimethylphenoxy)-5-(2-hydroxypropan-2-yl)phenyl]-1-methyl-2-oxo-1,2-dihydropyridin-4-yl}oxy)cyclohexyl]-5-methyl-1,3-oxazolidine-2,4-dione] | > 13 |

Next, values leading:

| Ki [µM] | SMILES |
| --- | --- |
| 2.83 | Cc1cc(F)cc(C)c1Oc1ccc(C(C)(C)O)cc1-c1cn(C)c(=O)cc1O[C@H]1CC[C@H](C(C)(C)O)CC1 [Example 67, 5-[2-(4-fluoro-2,6-dimethylphenoxy)-5-(2-hydroxypropan-2-yl)phenyl]-4-{[trans-4-(2-hydroxypropan-2-yl)cyclohexyl]oxy}-1-methylpyridin-2(1H)-one] |
| 7.25 | Cc1cc(F)cc(C)c1Oc1ccc(C(C)(C)O)cc1-c1cn(C)c(=O)cc1O[C@H]1CC[C@H](C#N)CC1 [Example 69, trans-4-({5-[2-(4-fluoro-2,6-dimethylphenoxy)-5-(2-hydroxypropan-2-yl)phenyl]-1-methyl-2-oxo-1,2-dihydropyridin-4-yl}oxy)cyclohexane-1-carbonitrile] |
| > 13 | Cc1cc(F)cc(C)c1Oc1ccc(C(C)(C)O)cc1-c1cn(C)c(=O)cc1O[C@H]1CC[C@@H](C(C)(C)O)CC1 [Example 74, 5-[2-(4-fluoro-2,6-dimethylphenoxy)-5-(2-hydroxypropan-2-yl)phenyl]-4-{[cis-4-(2-hydroxypropan-2-yl)cyclohexyl]oxy}-1-methylpyridin-2(1H)-one] |
| > 13 | Cc1cc(F)cc(C)c1Oc1ccc(C(C)(C)O)cc1-c1cn(C)c(=O)cc1O[C@H]1CC[C@@H](C(=O)N2CCCC2)CC1 [Example 77, 5-[2-(4-fluoro-2,6-dimethylphenoxy)-5-(2-hydroxypropan-2-yl)phenyl]-1-methyl-4-{[cis-4-(pyrrolidine-1-carbonyl)cyclohexyl]oxy}pyridin-2(1H)-one] |
| 4.65 | Cc1cc(F)cc(C)c1Oc1ccc(C(C)(C)O)cc1-c1cn(C)c(=O)cc1O[C@H]1CC[C@H](N2C(=O)CN(C)C2=O)CC1 [Example 78, 3-[trans-4-({5-[2-(4-fluoro-2,6-dimethylphenoxy)-5-(2-hydroxypropan-2-yl)phenyl]-1-methyl-2-oxo-1,2-dihydropyridin-4-yl}oxy)cyclohexyl]-1-methylimidazolidine-2,4-dione] |
| 2.53 | Cc1cc(F)cc(C)c1Oc1ccc(C(C)(C)O)cc1-c1cn(C)c(=O)cc1O[C@H]1CC[C@H](NC(=O)C(C)(C)CCCO)CC1 [Example 79, N-[trans-4-({5-[2-(4-fluoro-2,6-dimethylphenoxy)-5-(2-hydroxypropan-2-yl)phenyl]-1-methyl-2-oxo-1,2-dihydropyridin-4-yl}oxy)cyclohexyl]-5-hydroxy-2,2-dimethylpentanamide] |
| 9.88 | Cc1cc(F)cc(C)c1Oc1ccc(C(C)(C)O)cc1-c1cn(C)c(=O)cc1O[C@H]1CC[C@H](N2C(=O)CCCC2=O)CC1 [Example 80, 1-[trans-4-({5-[2-(4-fluoro-2,6-dimethylphenoxy)-5-(2-hydroxypropan-2-yl)phenyl]-1-methyl-2-oxo-1,2-dihydropyridin-4-yl}oxy)cyclohexyl]piperidine-2,6-dione] |
| 5.89 | Cc1cc(F)cc(C)c1Oc1ccc(C(C)(C)O)cc1-c1cn(C)c(=O)cc1O[C@H]1CC[C@H](N2C(=O)[C@H](C)N(C)C2=O)CC1 [Example 83, (5S)-3-[trans-4-({5-[2-(4-fluoro-2,6-dimethylphenoxy)-5-(2-hydroxypropan-2-yl)phenyl]-1-methyl-2-oxo-1,2-dihydropyridin-4-yl}oxy)cyclohexyl]-1,5-dimethylimidazolidine-2,4-dione] |
| > 13 | Cc1cc(F)cc(C)c1Oc1ccc(C(C)(C)O)cc1-c1cn(C)c(=O)cc1O[C@H]1CC[C@H](N2C(=O)CCC(C)(C)C2=O)CC1 [Example 89, 1-[trans-4-({5-[2-(4-fluoro-2,6-dimethylphenoxy)-5-(2-hydroxypropan-2-yl)phenyl]-1-methyl-2-oxo-1,2-dihydropyridin-4-yl}oxy)cyclohexyl]-3,3-dimethylpiperidine-2,6-dione] |
| 11.5 | Cc1cc(F)cc(C)c1Oc1ccc(C(C)(C)O)cc1-c1cn(C)c(=O)cc1O[C@H]1CC[C@H](N2C(=O)CC(C)(C)C2=O)CC1 [Example 90, 1-[trans-4-({5-[2-(4-fluoro-2,6-dimethylphenoxy)-5-(2-hydroxypropan-2-yl)phenyl]-1-methyl-2-oxo-1,2-dihydropyridin-4-yl}oxy)cyclohexyl]-3,3-dimethylpyrrolidine-2,5-dione] |
| 5.86 | Cc1cc(F)cc(C)c1Oc1ccc(C(C)(C)O)cc1-c1cn(C)c(=O)cc1O[C@H]1CC[C@H](N2C(=O)[C@@H]3CCCN3C2=O)CC1 [Example 91, (7aS)-2-[trans-4-({5-[2-(4-fluoro-2,6-dimethylphenoxy)-5-(2-hydroxypropan-2-yl)phenyl]-1-methyl-2-oxo-1,2-dihydropyridin-4-yl}oxy)cyclohexyl]tetrahydro-1H-pyrrolo[1,2-c]imidazole-1,3(2H)-dione] |
